pIC50: −log10 of the molar value.
Test system: intracellular HBV DNA
Experiment: Real-time PCR for intracellular HBV DNA in HepAD38 cells
Format: cell-based
Conditions: Hepatitis B virus, HePAD38, 65 h, 65 hours treatment
Protocol: HepAD38 cells were cultured in DMEM medium (Welgene) supplemented with 200 unit/mL penicillin, 200 μg/mL streptomycin, and 10% FBS. During maintenance and passage, the cells were cultured together with 0.4 μg/mL tetracycline. Two days before the treatment with compounds for inducing HBV replication was started, the medium was replaced with a tetracycline-free complete growth medium. […]
HepAD38 cells were treated with a compound for 65 hours and then recovered, and intracellular HBV DNA was extracted therefrom according to the protocol in the DNeasy Blood & Tissue Kit (Qiagen). The primers and probes used to quantify HBV DNA were 5′-[…]-3′, 5′-[…]-3′, and 5′-/56-FAM/TGT CCT GGT/ZEN/TAT CGC TGG ATG TGT CT/3IABkFQ/-3′. The HBV DNA was amplified by real-time PCR assay using LightCycler 480 (Roche) (J. Virol., 2018, 92(16):e00339-18). All of the processes were confirmed in duplicate.

SMILES	pIC50
N#Cc1ccc(N(Cc2n[nH]c3c2CCCO3)C(=O)Nc2ccc(F)c(Cl)c2)cn1 [Example 124, 3-(3-chloro-4-fluorophenyl)-1-(6-cyanopyridin-3-yl)-1-((1,4,5,6-tetrahydropyrano[2,3-c]pyrazol-3-yl)methyl)urea]	7.33
COc1ncc(N(Cc2cc(C(F)(F)F)[nH]n2)C(=O)NC23CC(F)(C2)C3)cn1 [Example 185, 3-(3-fluorobicyclo[1.1.1]pentan-1-yl)-1-(2-methoxypyrimidin-5-yl)-1-((5-(trifluoromethyl)-1H-pyrazol-3-yl)methyl)urea]	< 5.96
COc1ncc(N(Cc2cc(C(F)(F)F)[nH]n2)C(=O)Nc2cnc(F)c(F)c2)cn1 [Example 171, 3-(5,6-difluoropyridin-3-yl)-1-(2-methoxypyrimidin-5-yl)-1-((5-(trifluoromethyl)-1H-pyrazol-3-yl)methyl)urea]	6.55
COc1ncc(N(Cc2cc(C(F)(F)F)[nH]n2)C(=O)Nc2ccnc(Br)c2F)cn1 [Example 4, 3-(2-bromo-3-fluoropyridin-4-yl)-1-(2-methoxypyrimidin-5-yl)-1-((5-(trifluoromethyl)-1H-pyrazol-3-yl)methyl)urea]	7.68
COc1ccc(N(Cc2cc(C(F)(F)F)[nH]n2)C(=O)Nc2ccc(F)c(C(F)F)c2)nn1 [Example 200, 3-(3-(difluoromethyl)-4-fluorophenyl)-1-(6-methoxypyridazin-3-yl)-1-((5-(trifluoromethyl)-1H-pyrazol-3-yl)methyl)urea]	< 5.96
N#Cc1ccc(N(Cc2cc(C(F)F)[nH]n2)C(=O)Nc2ccc(F)c(Cl)c2)cn1 [Example 126, 3-(3-chloro-4-fluorophenyl)-1-(6-cyanopyridin-3-yl)-1-((5-(difluoromethyl)-1H-pyrazol-3-yl)methyl)urea]	6.27
COc1ncc(N(Cc2cc(C(F)F)[nH]n2)C(=O)Nc2cc(C)c(F)c(Cl)c2)cn1 [Example 139, 3-(3-chloro-4-fluoro-5-methylphenyl)-1-((5-(difluoromethyl)-1H-pyrazol-3-yl)methyl)-1-(2-methoxypyrimidin-5-yl)urea]	7.40
COc1ncc(N(Cc2cc(C(F)(F)F)[nH]n2)C(=O)Nc2ccnc(C(F)F)c2F)cn1 [Example 211, 3-(2-(difluoromethyl)-3-fluoropyridin-4-yl)-1-(2-methoxypyrimidin-5-yl)-1-((5-(trifluoromethyl)-1H-pyrazol-3-yl)methyl)urea]	7.51
COc1ncc(N(Cc2cc(C(F)(F)F)[nH]n2)C(=O)Nc2cccc(F)n2)cn1 [Example 183, 3-(6-fluoropyridin-2-yl)-1-(2-methoxypyrimidin-5-yl)-1-((5-(trifluoromethyl)-1H-pyrazol-3-yl)methyl)urea]	< 5.96
COc1ncc(N(Cc2cc(C(F)F)[nH]n2)C(=O)Nc2cccc(C#N)c2)cn1 [Example 147, 3-(3-cyanophenyl)-1-((5-(difluoromethyl)-1H-pyrazol-3-yl)methyl)-1-(2-methoxypyrimidin-5-yl)urea]	7.10
COc1ccc(N(Cc2n[nH]c(C(F)(F)F)c2CC2OC(C)(C)C(C)(C)O2)C(=O)Nc2ccc(F)c(Cl)c2)cn1 [Example 87, 3-(3-chloro-4-fluorophenyl)-1-(6-methoxypyridin-3-yl)-1-((4-((4,4,5,5-tetramethyl-1,3-dioxolan-2-yl)methyl)-5-(trifluoromethyl)-1H-pyrazol-3-yl)methyl)urea]	7.47
N#Cc1cc(N(Cc2n[nH]c3c2COCC3)C(=O)Nc2ccc(F)c(Cl)c2)ccn1 [Example 123, 3-(3-chloro-4-fluorophenyl)-1-(2-cyanopyridin-4-yl)-1-((1,4,6,7-tetrahydropyrano[4,3-c]pyrazol-3-yl)methyl)urea]	6.60
COc1ncc(N(Cc2cc(C(F)(F)F)[nH]n2)C(=O)Nc2cc(C#N)c(F)cn2)cn1 [Example 161, 3-(4-cyano-5-fluoropyridin-2-yl)-1-(2-methoxypyrimidin-5-yl)-1-((5-(trifluoromethyl)-1H-pyrazol-3-yl)methyl)urea]	7.13
COc1ncc(N(Cc2cc(C(F)(F)F)[nH]n2)C(=O)Nc2cnc(Cl)nc2)cn1 [Example 143, 3-(2-chloropyrimidin-5-yl)-1-(2-methoxypyrimidin-5-yl)-1-((5-(trifluoromethyl)-1H-pyrazol-3-yl)methyl)urea]	< 5.96
COc1ncc(N(Cc2cc(C(F)(F)F)[nH]n2)C(=O)Nc2cc(F)c(F)c(C#N)c2)cn1 [Example 149, 3-(3-cyano-4,5-difluorophenyl)-1-(2-methoxypyrimidin-5-yl)-1-((5-(trifluoromethyl)-1H-pyrazol-3-yl)methyl)urea]	6.22
COc1ncc(N(Cc2cc(C(F)(F)F)[nH]n2)C(=O)Nc2ccc(F)c(F)n2)cn1 [Example 170, 3-(5,6-difluoropyridin-2-yl)-1-(2-methoxypyrimidin-5-yl)-1-((5-(trifluoromethyl)-1H-pyrazol-3-yl)methyl)urea]	6.52

SMILES	pIC50
COc1ncc(N(Cc2cc(C(F)(F)F)[nH]n2)C(=O)Nc2ccnc(C#N)c2F)cn1 [Example 158, 3-(2-cyano-3-fluoropyridin-4-yl)-1-(2-methoxypyrimidin-5-yl)-1-((5-(trifluoromethyl)-1H-pyrazol-3-yl)methyl)urea]	6.64
COc1ncc(N(Cc2cc(C(F)F)[nH]n2)C(=O)Nc2cc(F)c(F)c(F)c2)cn1 [Example 220, 1-((5-(difluoromethyl)-1H-pyrazol-3-yl)methyl)-1-(2-methoxypyrimidin-5-yl)-3-(3,4,5-trifluorophenyl)urea]	7.32
COc1ncc(N(Cc2n[nH]c(C(F)F)c2CC(C)(C)O)C(=O)Nc2ccc(F)c(Cl)c2)cn1 [Example 103, 3-(3-chloro-4-fluorophenyl)-1-((5-(difluoromethyl)-4-(2-hydroxy-2-methylpropyl)-1H-pyrazol-3-yl)methyl)-1-(2-methoxypyrimidin-5-yl)urea]	< 5.96
COc1ncc(N(Cc2cc(C(F)(F)F)[nH]n2)C(=O)Nc2ccc(F)c(C#N)n2)cn1 [Example 160, 3-(6-cyano-5-fluoropyridin-2-yl)-1-(2-methoxypyrimidin-5-yl)-1-((5-(trifluoromethyl)-1H-pyrazol-3-yl)methyl)urea]	6.37
COc1ncc(N(Cc2cc(C(F)(F)F)[nH]n2)C(=O)Nc2nc(F)c(F)cc2F)cn1 [Example 221, 1-(2-methoxypyrimidin-5-yl)-1-((5-(trifluoromethyl)-1H-pyrazol-3-yl)methyl)-3-(3,5,6-trifluoropyridin-2-yl)urea]	< 5.96
COC12CC(N(Cc3cc(C(F)(F)F)[nH]n3)C(=O)Nc3ccc(F)c(C#N)c3)(C1)C2 [Example 162, 3-(3-cyano-4-fluorophenyl)-1-(3-methoxybicyclo[1.1.1]pentan-1-yl)-1-((5-(trifluoromethyl)-1H-pyrazol-3-yl)methyl)urea]	7.44
CC12CC(N(Cc3cc(C(F)(F)F)[nH]n3)C(=O)Nc3ccc(F)c(Cl)c3)(C1)C2 [Example 27, 3-(3-chloro-4-fluorophenyl)-1-(3-methylbicyclo[1.1.1]pentan-1-yl)-1-((5-(trifluoromethyl)-1H-pyrazol-3-yl)methyl)urea]	6.80
COc1ncc(N(Cc2cc(C(F)(F)F)[nH]n2)C(=O)Nc2nc(F)ccc2F)cn1 [Example 169, 3-(3,6-difluoropyridin-2-yl)-1-(2-methoxypyrimidin-5-yl)-1-((5-(trifluoromethyl)-1H-pyrazol-3-yl)methyl)urea]	< 5.96
COc1ncc(N(Cc2cc(C(F)(F)F)[nH]n2)C(=O)Nc2cccc(Cl)n2)cn1 [Example 5, 3-(6-chloropyridin-2-yl)-1-(2-methoxypyrimidin-5-yl)-1-((5-(trifluoromethyl)-1H-pyrazol-3-yl)methyl)urea]	6.42
COc1ncc(NC(=O)N(Cc2cc(C(F)(F)F)[nH]n2)c2cnc(OC)nc2)cn1 [Example 216, 1,3-bis(2-methoxypyrimidin-5-yl)-1-((5-(trifluoromethyl)-1H-pyrazol-3-yl)methyl)urea]	< 5.96
COc1ncc(N(Cc2cc(C(F)(F)F)[nH]n2)C(=O)NC23CC(C2)C3)cn1 [Example 1, 3-(bicyclo[1.1.1]pentan-1-yl)-1-(2-methoxypyrimidin-5-yl)-1-((5-(trifluoromethyl)-1H-pyrazol-3-yl)methyl)urea]	< 5.96
COc1ncc(N(Cc2cc(C(F)F)[nH]n2)C(=O)Nc2cc(F)c(F)c(Cl)c2)cn1 [Example 12, 3-(3-chloro-4,5-difluorophenyl)-1-((5-(difluoromethyl)-1H-pyrazol-3-yl)methyl)-1-(2-methoxypyrimidin-5-yl)urea]	7.35
COc1ncc(N(Cc2n[nH]c(C(F)(F)F)c2CC(C)(C)O)C(=O)Nc2ccc(F)c(Cl)c2)cn1 [Example 101, 3-(3-chloro-4-fluorophenyl)-1-((4-(2-hydroxy-2-methylpropyl)-5-(trifluoromethyl)-1H-pyrazol-3-yl)methyl)-1-(2-methoxypyrimidin-5-yl)urea]	< 5.96
COc1ncc(N(Cc2cc(C(F)(F)F)[nH]n2)C(=O)Nc2cnc(F)c(Cl)c2)cn1 [Example 107, 3-(5-chloro-6-fluoropyridin-3-yl)-1-(2-methoxypyrimidin-5-yl)-1-((5-(trifluoromethyl)-1H-pyrazol-3-yl)methyl)urea]	7.21
COc1ncc(N(Cc2cc(C(F)(F)F)[nH]n2)C(=O)Nc2ccc(Cl)nc2Cl)cn1 [Example 165, 3-(2,6-dichloropyridin-3-yl)-1-(2-methoxypyrimidin-5-yl)-1-((5-(trifluoromethyl)-1H-pyrazol-3-yl)methyl)urea]	< 5.96

Source: US20250009742A1 (priority 2021, published 2025)
